Laboratory results: patent US11884956B2, “Methods for detecting mycobacteria with solvatochromic dye conjugates” (priority 2016, dated 2024)

Key:
[1] = system: Mycobacterium smegmatis (Msmeg); experiment: No-wash imaging of Msmeg by DMN-Tre and 6-FITre; type: cell-based; conditions: 100 μM, 1 hour, imaged without washing; FIG. 9A
[2] = system: Corynebacterium glutamicum (Cg); experiment: No-wash imaging of Cg by DMN-Tre and 6-FITre; type: cell-based
[3] = system: Mycobacterium marinum (Mm); experiment: No-wash imaging of M. marinum by DMN-Tre and 6-FITre; type: cell-based; conditions: 100 μM, 6 hours, imaged without washing; FIG. 9A
[4] = system: Mtb cells; experiment: Labeling of drug-treated Mtb; type: cell-based, Mycobacterium tuberculosis; conditions: drug cocktail 3 hours before staining; FIGS. 15C and 15D
[5] = system: Mtb cells in TB-positive patient sputum samples; experiment: Microscopy analysis of Mtb in sputum samples / Auramine vs DMN-Tre smear test; type: cell-based, Mycobacterium tuberculosis; conditions: for detection of Mtb cells in split sputum samples: DMN-Tre 30 minutes or Auramine O standard kit protocol, FIGS. 17B-D
[6] = system: Msmeg; experiment: Flow cytometry of metabolically labeled Msmeg; type: cell-based, Mycobacterium smegmatis
[7] = Absorbance and fluorescence measurements of DMN-Tre; type: physicochemical
Method: One μL of 10 mM DMN-Tre in H2O was added to 1 mL of mixtures of dioxane and water at different ratios. Absorbance spectra were recorded on a Varian Cary 50 UV-Visible spectrophotometer. Fluorescence spectra were recorded on a Photon Technology International Quanta Master 4 L-format scanning spectrofluorometer equipped with an LPS-220B 75-W xenon lamp and power supply, an A-1010B lamp housing with an integrated igniter, a switchable 814 photon counting/analog photomultiplier detection unit, and an MD5020 motor driver. Measurements were made in 1 cm×0.4 cm quartz cuvettes with a total sample volume of 1 mL.

[8] = system: Msmeg; experiment: No-wash labeling of Msmeg over time; type: cell-based, Mycobacterium smegmatis; conditions: FIG. 10
Method: (§1) Msmeg or Cg cells were grown to an OD600 of 0.5 from a single colony as above. To 200 μL of culture was added 2 μL of 10 mM DMN-Tre in H2O. Aliquots were taken from this culture at the indicated time points, immediately placed under a coverslip, and imaged.

[9] = system: Cg; experiment: No-wash labeling of Cg over time; type: cell-based, Corynebacterium glutamicum; conditions: FIG. 10
Method: as §1

[10] = system: Bacillus subtilis (Bs); experiment: Labeling of non-mycomembrane bearing bacteria (Bs); type: cell-based; conditions: 100 μM, 37° C., 2 h; FIG. 11A
Method: (§2) Lm, Bs, Ec, and Sa were grown from single colonies at 37° C. overnight. The bacteria were diluted to an OD600 of 0.4. To 1 mL aliquots of these bacteria, 10 μL of 10 mM DMN-Tre was added to reach a final concentration of 100 μM. The cells were then incubated at 37° C. for 2 h. Aliquots were taken and the cells were imaged under a coverslip. As controls, cells from the same OD600=0.4 culture, without the addition of DMN-Tre, were also imaged.

[11] = system: Escherichia coli (Ec); experiment: Labeling of non-mycomembrane bearing bacteria (Ec); type: cell-based; conditions: 100 μM, 37° C., 2 h; FIG. 11A
Method: as §2

[12] = system: Listeria monocytogenes (Lm); experiment: Labeling of non-mycomembrane bearing bacteria (Lm); type: cell-based; conditions: 100 μM, 37° C., 2 h; FIG. 11A
Method: as §2

[13] = system: Staphylococcus aureus (Sa); experiment: Labeling of non-mycomembrane bearing bacteria (Sa); type: cell-based; conditions: 100 μM, 37° C., 2 h; FIG. 11A
Method: as §2

[14] = system: Msmeg expressing mCherry; experiment: Selective labeling of Msmeg in the presence of other bacterial species; type: cell-based, Mycobacterium smegmatis; conditions: 1:10 mycobacteria/other bacteria (Bs, Ec, Lm, Sa), Hoechst dye, one hour, no wash; FIG. 11B
Method: Bacteria (Lm, Bs, Ec, and Sa) were grown overnight with shaking in media as noted above. The bacteria were diluted to OD600=0.5, then 500 μL of each culture were mixed together to create 2 mL of mixed bacteria. One mL of Msmeg expressing mCherry was grown from a single colony overnight to OD600 of 0.5. Both cultures were pelleted by centrifugation (3 min, 3,300×g) and resuspended in an identical volume of LB medium. To 540 μL of mix, 60 μL of Msmeg was added. Lastly, this final mixture of bacteria containing Msmeg and the four other non-mycomembrane bearing bacterial species was split into two 300 μL aliquots. To each group, 0.3 μL of 2 mg/mL Hoechst DNA stain (Thermo Fisher Scientific, 62249) was added to stain all the bacteria. To one of the two aliquots, 3 μL of 10 mM DMN-Tre were added, while no DMN-Tre was added to the other portion. The two aliquots were incubated with shaking at 37° C. for 1 h before a sample was taken out and imaged without washing.

[15] = system: M. smegmatis; experiment: Trehalose competition of DMN-Tre labeling in M. smegmatis; type: cell-based, Mycobacterium smegmatis; conditions: 1 hour, FIG. 12D
Method: Then, the bacteria were divided into 100 μL aliquots. To these aliquots was added 1 μL of 10 mM DMN-Tre and 1 μL of 0, 10 or 100 mM trehalose in water.

[16] = system: Msmeg trehalose transporter mutants; type: cell-based, Mycobacterium smegmatis; conditions: panel of trehalose transporter mutants
[17] = system: Msmeg deficient in Ag85A; experiment: DMN-Tre labeling of Msmeg deficient in Ag85A; type: cell-based, Mycobacterium smegmatis; conditions: FIG. 12F
[18] = system: Mtb (H37Rv); experiment: Axenic MTB culture time-course experiment; type: cell-based, Mycobacterium tuberculosis
[19] = Stability of DMN-Tre; type: physicochemical; conditions: bench or shipping containers at room temperature; aqueous solution at 37° C.
[20] = system: heat-killed Msmeg cells; experiment: DMN-Tre labeling of heat-killed Msmeg; conditions: FIGS. 13A and 13B
[21] = system: ΔkatG mutant of Msmeg; type: cell-based, Mycobacterium smegmatis; conditions: FIG. 14C
[22] = system: wild-type Msmeg; experiment: DMN-Tre labeling after isoniazid treatment, wild-type; type: cell-based, Mycobacterium smegmatis; conditions: FIG. 14C
[23] = 100 μM, 2 hours, imaged without washing, FIG. 9A
[24] = 100 μM, exponential growth phase, first time point

O=C(O)c1cc(NC(=S)NC[C@H]2O[C@H](O[C@H]3O[C@H](CO)[C@@H](O)[C@H](O)[C@H]3O)[C@H](O)[C@@H](O)[C@@H]2O)ccc1-c1c2ccc(=O)cc-2oc2cc(O)ccc12 [6-FITre, 6-fluorescein-trehalose, reference compound]
background fluorescence of free probe in surrounding solution [1]: obscured by fluorescence of the probe in the surrounding solution
background fluorescence of free probe in surrounding solution [2, 23]: obscured by fluorescence of the probe in the surrounding solution
background fluorescence of free probe in surrounding solution [3]: obscured by fluorescence of the probe in the surrounding solution

CN(C)c1ccc(C(=N)c2ccc(N(C)C)cc2)cc1.Cl [Auramine O, reference compound]
labeling after prior drug cocktail treatment [4]: unaffected
detection of Mtb cells in split sputum samples [5]: detected

COC1OC(CN2C(=O)c3cccc4c(N(C)C)ccc(c34)C2=O)C(O)C(O)C1O (stereo not drawn) [DMN-Glc, DMN-glucose]
labeling of Msmeg ([6]; FIG. 12C): did not label Msmeg

CN(C)c1ccc2c3c(cccc13)C(=O)N(C[C@H]1O[C@H](O[C@H]3O[C@H](CO)[C@@H](O)[C@H](O)[C@H]3O)[C@H](O)[C@@H](O)[C@@H]1O)C2=O [DMN-Tre, 4-N,N-dimethylamino-1,8-naphthalimide-conjugated trehalose]
enhancement in fluorescence intensity when dissolved in organic solvent versus water [7]: ~700 fold
background fluorescence of free probe in surrounding solution [1]: no discernible background fluorescence
fluorescence labeling, no-wash imaging [1]: Bright fluorescence labeling
background fluorescence of free probe in surrounding solution [2, 23]: no discernible background fluorescence
fluorescence labeling, no-wash imaging [2, 23]: Bright fluorescence labeling
fluorescence labeling in the selectivity experiment ([2]; same experiment as the non-mycobacterial strains, FIG. 11A): labeled brightly
background fluorescence of free probe in surrounding solution [3]: no discernible background fluorescence
fluorescence labeling, no-wash imaging [3]: Bright fluorescence labeling
time point at which labeling was already visible [8, 24]: ≤ 5 min
time by which cells were uniformly labeled [8]: ≤ 1 h
labeling pattern at earliest time point ([8]; earliest time point): fluorescence only at the polar regions
time point at which labeling was already visible [9, 24]: ≤ 3 min
labeling pattern at earliest time point ([9]; earliest time point): even cell surface labeling
fluorescence labeling without washing [10]: none of the non-mycobacterial strains show any detectable fluorescence labeling
fluorescence labeling without washing [11]: none of the non-mycobacterial strains show any detectable fluorescence labeling
fluorescence labeling without washing [12]: none of the non-mycobacterial strains show any detectable fluorescence labeling
fluorescence labeling without washing [13]: none of the non-mycobacterial strains show any detectable fluorescence labeling
labeling in mixed bacterial culture [14]: Bright, specific, DMN-Tre labeling of only Msmeg cells
fluorescence signal of labeled cells by filter set ([6]; 100 μM DMN-Tre, 1 h, excited at wavelengths closer to 400 nm (405 nm vs 488 nm excitation), FIG. 9B): higher fluorescence signal over control samples
time to significant fluorescence over background ([6]; flow cytometry, FIG. 12A): ≤ 20 min
cells labeled ([6]; within 30 minutes, flow cytometry, FIG. 12B): > 70%
DMN-Tre labeling in the presence of excess trehalose [15]: reduced
DMN-Tre incorporation versus wild-type [16]: comparable to wild-type
DMN-Tre labeling versus wild-type [17]: reduced labeling compared to wild-type
labeling of liquid cultures ([18]; FIG. 15A): visibly labeled
cells labeled ([18]; liquid cultures, within 30 minutes, FIG. 15B): > 65%
labeling over time ([18]; overnight (˜16 h), FIG. 15B): continued to intensify overnight
labeling after prior drug cocktail treatment [4]: inhibited
time to detection of mycobacteria in TB patient sputum samples [5]: under an hour
fluorescent Mtb cells in sputum samples ([5]; 16 treatment-naïve TB-positive patients, 2-hour incubation, FIGS. 17A and D): readily visible in all samples
detection of Mtb cells in split sputum samples [5]: detected
Mtb cells detected in sputum compared with Auramine O ([5]; visibly stained cells over 8 fields of view per sample, 16 sputum samples, FIG. 17C): performed similarly to Auramine O
stability [19]: very stable on the bench or in shipping containers for weeks at room temperature, and even in aqueous solution at 37 °C
labeling after heat killing [20]: abrogated

NNC(=O)c1ccncc1 [isoniazid]
effect of isoniazid treatment on DMN-Tre labeling [21]: unaffected
effect of isoniazid treatment on DMN-Tre labeling [22]: not wild-type Msmeg, was unaffected
